From paper doi:10.1101/2024.07.16.603720v1 (biorxiv, 2024)
Converted amounts (≈) assume the structure as drawn. Blank lines part the entries; values can stand above or below the molecule they belong to.

What was measured:
[1] = test system: A. baumannii AB19606 WT (19606); test: microbe, parasite or virus in culture; set-up: species or system Acinetobacter baumannii AB19606; conditions: Acinetobacter baumannii, read-out: MIC
sDacC (sPBP5/6) [2] = target: T1, sDacC (sPBP5/6) (Acinetobacter baumannii, UniProt G1C735); test: Bocillin FL competition, SDS-PAGE fluorescence; format: binding
T1 sequence (G1C735 20-367): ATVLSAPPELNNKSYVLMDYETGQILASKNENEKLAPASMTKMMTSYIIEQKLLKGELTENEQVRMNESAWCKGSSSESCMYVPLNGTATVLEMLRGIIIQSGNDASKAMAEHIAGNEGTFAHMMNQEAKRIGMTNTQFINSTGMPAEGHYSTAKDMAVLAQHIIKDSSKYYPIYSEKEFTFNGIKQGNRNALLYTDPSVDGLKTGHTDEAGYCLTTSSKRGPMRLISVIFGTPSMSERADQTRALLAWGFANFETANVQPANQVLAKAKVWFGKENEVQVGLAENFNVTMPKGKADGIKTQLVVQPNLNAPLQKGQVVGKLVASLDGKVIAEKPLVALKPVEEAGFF

sDacD (sPBP6b) [3] = target: T2, sDacD (sPBP6b) (Acinetobacter baumannii, UniProt A0ABX6CI93); test: Bocillin FL competition, SDS-PAGE fluorescence; format: binding
T2 sequence (A0ABX6CI93 22-409): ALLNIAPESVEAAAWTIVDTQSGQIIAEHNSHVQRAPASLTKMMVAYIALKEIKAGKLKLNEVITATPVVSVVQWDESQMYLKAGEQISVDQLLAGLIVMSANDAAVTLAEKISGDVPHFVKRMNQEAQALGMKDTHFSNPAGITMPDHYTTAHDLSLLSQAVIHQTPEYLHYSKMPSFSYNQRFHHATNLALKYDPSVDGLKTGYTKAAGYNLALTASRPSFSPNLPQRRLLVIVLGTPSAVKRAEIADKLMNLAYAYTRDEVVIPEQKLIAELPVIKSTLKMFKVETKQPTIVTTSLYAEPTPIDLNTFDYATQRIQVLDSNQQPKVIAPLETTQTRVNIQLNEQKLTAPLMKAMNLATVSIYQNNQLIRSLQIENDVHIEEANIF

sDacC (sPBP5/6) [4] = target: T1, sDacC (sPBP5/6); test: biochemical
sDacD (sPBP6b) [5] = target: T2, sDacD (sPBP6b); test: biochemical
purified protein [6] = substrate: CC1(C)S[C@@H]2[C@H](NC(=O)Cc3ccccc3)C(=O)N2[C@H]1C(=O)O; test: purified protein; conditions: 10 mM phosphate, pH 7.4, 30 °C
purified protein [7] = substrate: CC1(C)S[C@@H]2[C@H](NC(=O)[C@H](C(=O)O)c3ccsc3)C(=O)N2[C@H]1C(=O)O; test: purified protein; conditions: 10 mM phosphate, pH 7.4, 30 °C
purified protein [8] = substrate: CO/N=C(\C(=O)N[C@@H]1C(=O)N2C(C(=O)O)=C(COC(C)=O)CS[C@H]12)c1csc(N)n1; test: purified protein; conditions: 10 mM phosphate, pH 7.4, 30 °C
purified protein [9] = substrate: C[C@@H](O)[C@H]1C(=O)N2C(C(=O)O)=C(SCCN=CN)C[C@H]12; test: purified protein; conditions: 10 mM phosphate, pH 7.4, 30 °C
[10] = substrate: CC(C)(O/N=C(\C(=O)N[C@@H]1C(=O)N2C(C(=O)[O-])=C(C[n+]3ccccc3)CS[C@H]12)c1csc(N)n1)C(=O)O; test: purified protein, by the assay type; conditions: pH 7.4; 30.0 °C
[11] = substrate: C[C@@H](O)[C@H]1C(=O)N2C(C(=O)O)=C(S[C@@H]3CN[C@H](C(=O)N(C)C)C3)[C@H](C)[C@H]12; test: purified protein, by the assay type; conditions: pH 7.4; 30.0 °C
[12] = substrate: C[C@@H](O)[C@H]1C(=O)N2C(C(=O)O)=C(S[C@@H]3CN[C@H](CNS(N)(=O)=O)C3)[C@H](C)[C@H]12; test: purified protein, by the assay type; conditions: pH 7.4; 30.0 °C
[13] = substrate: NC(=O)c1cc[n+](CC2=C(C(=O)O)N3C(=O)[C@@H](NC(=O)[C@@H](c4ccccc4)S(=O)(=O)[O-])[C@H]3SC2)cc1; test: purified protein, by the assay type; conditions: pH 7.4; 30.0 °C

Molecule: CC1(C)S[C@@H]2[C@H](NC(=O)[C@H](N)c3ccc(O)cc3)C(=O)N2[C@H]1C(=O)O [AMX, Amoxicillin]
MIC [1]: 1000 µg/mL (≈ 2740 µM)

Molecule: C=CC1=C(C(=O)O)N2C(=O)[C@@H](NC(=O)/C(=N\OCC(=O)O)c3csc(N)n3)[C@H]2SC1 [Cefixime]
IC50 (sDacC (sPBP5/6) [2]): 20.9 µM
IC50 (sDacD (sPBP6b) [3]): 52.8 µM

Molecule: NC(=O)c1cc[n+](CC2=C(C(=O)[O-])N3C(=O)[C@@H](NC(=O)[C@@H](c4ccccc4)S(=O)(=O)O)[C@H]3SC2)cc1 [Cefsulodin]
IC50 (sDacC (sPBP5/6) [2]): 6.3 µM
IC50 (sDacD (sPBP6b) [3]): 8.6 µM
MIC [1]: 250 µg/mL (≈ 469 µM)

Molecule: CO/N=C(\C(=O)N[C@@H]1C(=O)N2C(C(=O)O)=C(COC(N)=O)CS[C@H]12)c1ccco1 [Cefuroxime]
IC50 (sDacC (sPBP5/6) [2]): 12.9 µM
IC50 (sDacD (sPBP6b) [3]): 161 µM
MIC [1]: 500 µg/mL (≈ 1180 µM)

Molecule: O=C(O)[C@H]1/C(=C/CO)O[C@@H]2CC(=O)N21 [Clavulanic acid]
IC50 (sDacD (sPBP6b) [3]): 5.8 µM

Molecule: CO[C@@]1(NC(=O)Cc2cccs2)C(=O)N2C(C(=O)O)=C(COC(N)=O)CS[C@@H]21 [FOX, Cefoxitin]
MIC [1]: 500 µg/mL (≈ 1170 µM)

Molecule: Cc1onc(-c2ccccc2)c1C(=O)N[C@@H]1C(=O)N2[C@@H]1SC(C)(C)[C@@H]2C(=O)O [Oxacillin]
IC50 (sDacC (sPBP5/6) [2]): 95.9 µM
IC50 (sDacD (sPBP6b) [3]): 417 µM
MIC [1]: 500 µg/mL (≈ 1250 µM)

Molecule: CCN1CCN(C(=O)N[C@@H](C(=O)N[C@@H]2C(=O)N3[C@@H]2SC(C)(C)[C@@H]3C(=O)O)c2ccccc2)C(=O)C1=O [PIP, Piperacillin]
MIC [1]: 500 µg/mL (≈ 966 µM)
IC50 (sDacC (sPBP5/6) [4]): 539 µM
IC50 (sDacD (sPBP6b) [5]): 3280 µM

Molecule: CC1(C)S[C@@H]2[C@H](NC(=O)Cc3ccccc3)C(=O)N2[C@H]1C(=O)O [Penicillin G]
MIC [1]: > 2000 µg/mL

Molecule: CC1(C)[C@H](C(=O)O)N2C(=O)C[C@H]2S1(=O)=O [Sulbactam]
IC50 (sDacD (sPBP6b) [3]): 3.8 µM
IC50 (sDacC (sPBP5/6) [4]): 184 µM

Molecule: C[C@]1(Cn2ccnn2)[C@H](C(=O)O)N2C(=O)C[C@H]2S1(=O)=O [Tazobactam]
IC50 (sDacC (sPBP5/6) [4]): 1830 µM
IC50 (sDacD (sPBP6b) [5]): 1590 µM

B1: sDacC (sPBP5/6) (Acinetobacter baumannii) (protein)
chain: T1 sequence (G1C735 20-367)
Km (purified protein [6]): 8.2 ± 1.4 µM
kcat (purified protein [6]): 65.81 ± 12.5 s⁻¹
Km (purified protein [7]): 12.47 ± 2.5 µM
kcat (purified protein [7]): 93.31 ± 9.0 s⁻¹
Km (purified protein [8]): 6.09 ± 0.9 µM
kcat (purified protein [8]): 7.04 ± 1.1 s⁻¹
Km (purified protein [9]): 3.75 ± 0.4 µM
kcat (purified protein [9]): 7.52 ± 0.5 s⁻¹
Km [10]: 21.09 µM
kcat [10]: 8.36 s⁻¹
kcat/Km [10]: 390000 M⁻¹ s⁻¹
Km [11]: 12.19 µM
kcat [11]: 10 s⁻¹
kcat/Km [11]: 820000 M⁻¹ s⁻¹
Km [12]: 17.39 µM
kcat [12]: 5.35 s⁻¹
kcat/Km [12]: 310000 M⁻¹ s⁻¹
Km [13]: 21.21 µM
kcat [13]: 12.2 s⁻¹
kcat/Km [13]: 570000 M⁻¹ s⁻¹

Results, then the molecule that gave them:

MIC [1]: 16 µg/mL (≈ 29.3 µM)
Molecule: CC(C)(O/N=C(\C(=O)N[C@@H]1C(=O)N2C(C(=O)[O-])=C(C[n+]3ccccc3)CS[C@H]12)c1csc(N)n1)C(=O)O [CAZ, Ceftazidime]

MIC [1]: 64 µg/mL (≈ 141 µM)
Molecule: CO/N=C(\C(=O)N[C@@H]1C(=O)N2C(C(=O)O)=C(COC(C)=O)CS[C@H]12)c1csc(N)n1 [Cefotaxime]

IC50 (sDacC (sPBP5/6) [2]): 9.2 µM
IC50 (sDacD (sPBP6b) [3]): 1.7 µM
MIC [1]: 1.6 µg/mL (≈ 3.8 µM)
Molecule: C[C@@H](O)[C@H]1C(=O)N2C(C(=O)O)=C(S[C@@H]3CN[C@H](CNS(N)(=O)=O)C3)[C@H](C)[C@H]12 [Doripenem]

IC50 (sDacC (sPBP5/6) [2]): 15.7 µM
IC50 (sDacD (sPBP6b) [3]): 2.7 µM
MIC [1]: 1.6 µg/mL (≈ 4.17 µM)
Molecule: C[C@@H](O)[C@H]1C(=O)N2C(C(=O)O)=C(S[C@@H]3CN[C@H](C(=O)N(C)C)C3)[C@H](C)[C@H]12 [Meropenem]

MIC [1]: 16 µg/mL (≈ 41.6 µM)
Molecule: CC1(C)S[C@@H]2[C@H](NC(=O)[C@H](C(=O)O)c3ccsc3)C(=O)N2[C@H]1C(=O)O [Ticarcillin]
